A word on the IC50: it is the concentration at which inhibition is half-maximal. A low value points to greater potency. What is called inhibition is the change of the read-out against control, counted positive when it falls.

20 molecules from patent US9422240B2, “Partially saturated nitrogen-containing heterocyclic compound” (TAISHO PHARMACEUTICAL CO., LTD, priority 2012, dated 2016) can be followed below.

The target of assay [1] is T1, human PHD2 (Homo sapiens (Human), UniProt Q9GZT9). Nature of the assay: Test 2: human PHD2 inhibitory activity, fluorescence polarization assay of HIF-1α peptide proline hydroxylation. In kind it is biochemical. Conditions: for IC50: human PHD2, fluorescence polarization assay, 20-min incubation at 30° C.; for inhibition at 1 µM: test compound's concentration 1 μM, Test 2, fluorescence polarization assay, read-out: Percent inhibition (% at 1 μM). The gist of the method:
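A 19-mer HIF-1α peptide served as substrate, with the reaction started by 40 ng/well human PHD2 (cell lysate of NM_022051-transfected cells) and run 20 min at 30° C. before EDTA stop. Hydroxylated product bound anti-HIF-OH antibody, read by fluorescence polarization versus no-compound control.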
(In general: Polarisation of emitted light reports the rotation of a fluorescent probe.)

Assay [2] deals with T1, human PHD2. Put plainly: Test 1: human PHD2 inhibitory activity, [14C]-2-oxoglutarate to [14C]-succinic acid radiometric assay with HIF-1α peptide. In kind it is biochemical. The conditions noted are these: test compound's concentration 1 μM; Test 1, [14C]-2-oxoglutarate radiometric assay; read-out: Percent inhibition (% at 1 μM). The gist of the method:
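Activity was measured by radiometric counting of [14C]-succinic acid formed during prolyl hydroxylation of a 19-mer HIF-1α peptide, after DNPH removal of residual [14C]-2-oxoglutarate. Baculovirus-expressed human PHD2 lysate (4 μg/well) reacted for 15 min at 37° C. Substrate-free and compound-free wells served as reference points for inhibition.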

T1 sequence (Q9GZT9 whole entry): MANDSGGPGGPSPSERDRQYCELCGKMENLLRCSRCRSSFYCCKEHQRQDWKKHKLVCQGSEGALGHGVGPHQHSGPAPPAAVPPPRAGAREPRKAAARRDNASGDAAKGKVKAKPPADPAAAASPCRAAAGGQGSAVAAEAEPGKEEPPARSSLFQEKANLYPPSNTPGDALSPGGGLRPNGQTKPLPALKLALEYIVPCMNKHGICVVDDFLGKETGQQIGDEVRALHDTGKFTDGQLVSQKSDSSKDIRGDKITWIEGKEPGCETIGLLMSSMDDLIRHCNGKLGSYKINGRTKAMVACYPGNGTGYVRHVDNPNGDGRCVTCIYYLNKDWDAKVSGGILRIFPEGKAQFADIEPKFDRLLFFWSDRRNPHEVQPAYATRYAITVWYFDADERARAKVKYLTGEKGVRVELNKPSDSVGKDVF

Turning to `O=C(O)CNC(=O)C1=C(O)CCN(Cc2ccc(Oc3ccc(Cl)cn3)cc2)C1=O` [Ex. 1-289], the half-maximal inhibitory concentration (IC50) against human PHD2 [1] is 0.068 µM. Moreover, the results for the inhibition at 1 µM on human PHD2 [1] and at human PHD2 [2] were 98% and 95%, respectively.
As to `O=C(O)CNC(=O)C1=C(O)CCN(Cc2ccccc2Oc2ccc(F)cc2)C1=O` [Ex. 1-290], the inhibition at 1 µM on human PHD2 [1] is 86%; on human PHD2 [2], 63%.
For `O=C(O)CNC(=O)C1=C(O)CCN(Cc2ccc(OCC(F)(F)F)cc2)C1=O` [Ex. 1-291], in that order: 86% and 75%.
For `O=C(O)CNC(=O)C1=C(O)CCN(Cc2ccc(OCC(F)(F)F)c(F)c2)C1=O` [Ex. 1-292], in that order: 86% and 83%.
Turning to `CC1(C)CC(O)=C(C(=O)NCC(=O)O)C(=O)N1Cc1cnc(-c2ccccc2)[nH]1` [Ex. 1-293], the inhibition at 1 µM at human PHD2 [1] worked out at 33%; at human PHD2 [2], 35%.
Turning to `CC1(C)CC(O)=C(C(=O)NCC(=O)O)C(=O)N1Cc1nc(-c2ccccc2)cs1` [Ex. 1-294], the inhibition at 1 µM at human PHD2 [1] is 68%; at human PHD2 [2], 51%.
For `CC1(C)CC(O)=C(C(=O)NCC(=O)O)C(=O)N1Cc1coc(-c2ccccc2)n1` [Ex. 1-295], in that order: 74% and 63%.
For `O=C(O)CNC(=O)C1=C(O)CCN(Cc2ccc(Oc3ccc(C4CC4)cc3)nc2)C1=O` [Ex. 1-296], on human PHD2 [1], the IC50 was found to be 0.015 µM and the inhibition at 1 µM amounted to 102%. Also, the inhibition at 1 µM at human PHD2 [2] came out at 100%.
For `Cc1ccc(Oc2ccc(CN3CCC(O)=C(C(=O)NCC(=O)O)C3=O)cc2)nc1` [Ex. 1-297], in that order: 0.089 µM, 94% and 86%.
On to `O=C(O)CNC(=O)C1=C(O)CCN(Cc2ccc(Oc3ccc(C(F)(F)F)cn3)cc2)C1=O` [Ex. 1-298], for which, on human PHD2 [1], the IC50 turned out to be 0.079 µM and the inhibition at 1 µM came out at 94%. For the same molecule, the inhibition at 1 µM at human PHD2 [2] turned out to be 84%.
For the molecule `Cn1nc(-c2ccccc2)cc1CN1C(=O)C(C(=O)NCC(=O)O)=C(O)CC1(C)C` [Ex. 1-299], the results for the inhibition at 1 µM at human PHD2 [1] and at human PHD2 [2] were 64% and 47%, respectively.
For `Cn1nc(CN2C(=O)C(C(=O)NCC(=O)O)=C(O)CC2(C)C)cc1-c1ccccc1` [Ex. 1-300], in that order: 43% and 30%.
For `Cc1nc(-c2ccccc2)oc1CN1C(=O)C(C(=O)NCC(=O)O)=C(O)CC1(C)C` [Ex. 1-301], the figures for the inhibition at 1 µM at human PHD2 [1] and at human PHD2 [2] were 75% and 56%, respectively.
For `CC1(C)CN(Cc2ccc(OCC3CC3)cc2)C(=O)C(C(=O)NCC(=O)O)=C1O` [Ex. 1-302], in that order: 79% and 61%.
Regarding `Cc1ccc(Oc2ccc(CN3C(=O)C(C(=O)NCC(=O)O)=C(O)CC34CC4)cn2)cc1` [Ex. 1-303], the inhibition at 1 µM is 100% at human PHD2 [1] and 102% at human PHD2 [2].
For `CC1(C)CN(Cc2ccc(OC(F)(F)F)c(Cl)c2)C(=O)C(C(=O)NCC(=O)O)=C1O` [Ex. 1-304], in that order: 72% and 35%.
For `Cc1ccc(COc2ccc(CN3CCC(O)=C(C(=O)NCC(=O)O)C3=O)cc2)cc1` [Ex. 1-305], in that order: 97% and 94%.
For `O=C(O)CNC(=O)C1=C(O)CCN(Cc2ccc(OCc3cccc(Cl)c3)cc2)C1=O` [Ex. 1-306], in that order: 99% and 94%.
`O=C(O)CNC(=O)C1=C(O)CCN(C2CCCCC2)C1=O` [Ex. 1-307]: the inhibition at 1 µM on human PHD2 [1] is 60%; on human PHD2 [2] it was 51%.
Turning to `Cc1ccc(-c2ccc(CN3CCC(O)=C(C(=O)NCC(=O)O)C3=O)cc2)cc1` [Ex. 2-1, N-({4-Hydroxy-1-[(4′-methylbiphenyl-4-yl)methyl]-2-oxo-1,2,5,6-tetrahydropyridin-3-yl}carbonyl)glycine], the inhibition at 1 µM on human PHD2 [1] came to 88%; at human PHD2 [2], 93%.
